Data set [1] relates to feruloyl-CoA:monolignol transferase (FMT). The data set can be described thus: Feruloyl-CoA:monolignol transferase (FMT) enzymatic assay, substrate test with UPLC detection of product. Format: biochemical, Angelica sinensis. To be noted: purified recombinant FMT; for product formed from CoA thioester as acyl donor: coniferyl alcohol as acyl acceptor (FIGS. 2, 6, 7); for FMT activity with monolignol as acyl acceptor: feruloyl-CoA as acyl donor (FIGS. 2, 4, 5). Here is the method: The feruloyl-CoA, p-coumaroyl-CoA, and caffeoyl-CoA substrates used in the FMT assay were enzymatically synthesized using the tobacco 4-coumarate-CoA-ligase (4CL) with a c-terminal HIS tag in pCRT7/CT TOPO, provided by Eran Pichersky. Following a method modified from Beuerle and Pichersky (Anal. Biochem. 302(2): 305-12 (2001)) 3.3 mg of ferulic acid, coumaric acid or caffeic acid, 2 mg coenzyme A, and 6.9 mg ATP were added to 50 mM Tris-hydrochloride pH 8 and 2.5 mM magnesium chloride in a final volume of 10 ml. The reaction was started by adding 0.25 mg 4CL, protein purified as described by the method of Beurerle and Pichershy. After a five-hour incubation at room temperature, additional 6.9 mg ATP, 2 mg coenzyme A, and 0.25 mg purified 4CL were added and the reaction was incubated overnight. The CoA esters were purified on an SPE cartridge as described in Beuerle and Pichersky (2001).
(§1) The FMT activity assay contained 100 mM MOPS pH 6.8, 1 mM dithiothreitol (DTT), 1 mM feruloyl-CoA, 1 mM coniferyl alcohol, 3.9 μg of purified FMT protein and deionized water to a volume of 50 μL. After a 30-minute incubation, 1 μL of 10 M hydrochloric acid was added to stop the reaction. Because the product synthesized in the reaction, coniferyl ferulate (CAFA), is insoluble, 50 μL of methanol was added to solubilize the CAFA. Prior to UPLC, protein and insoluble material were removed by filtering through an Amicon Ultracel 10K membrane filter (Millipore). The flow-through was analyzed using an Acquity Ultra Performance LC with an Acquity UPLC BEH C18 1.7 μm 2.1×100 mm column and the Acquity Console and Empower 2 Software, all from Waters Corporation. The solvents used in this method were solvent A, 0.1% trifluoroacetic acid, and solvent B, 100% acetonitrile. Samples were analyzed using the following gradient conditions, 13% B, for 5 minutes, 1 minute linear gradient to 42% B, held for 4 minutes, 1 minute linear gradient to 100% B, held for 1 minutes and 3 minutes at 13% B with a flow rate of 0.3 ml/minute. This method was then used to analyze a 10 μL injection of each assay reaction; standards for each of the substrates along with chemically synthesized CAFA were used to determine retention times for each compound.
Purified recombinant enzyme was assayed for FMT activity using a reaction mixture containing 2 mM coniferyl alcohol, […], 100 mM HEPES pH 7.4 and 1 mM DTT. The second most abundant BAHD acyltransferase gene when incubated with Coniferyl alcohol and feruloyl-CoA produced a compound with the retention time of authentic coniferyl ferulate (CAFA) (FIG. 2). […] The addition of methanol to 50% after stopping the enzyme with acid was required to analyze the product by UPLC. The insolubility of the product made partial purification easy as the product was separated from the substrates by centrifugation.
This partial purified product was analyzed by NMR. The identity of the product as CAFA was confirmed by ^1H-NMR (FIG. 3). The enzyme was tested with p-coumaryl alcohol (FIG. 4) and sinapyl alcohol (FIG. 5) in addition to coniferyl alcohol (FIG. 2). The enzyme is active with all three monolignols, i.e., p-coumaryl alcohol, coniferyl alcohol and sinapyl alcohol. The enzyme was tested with p-coumaroyl-CoA (FIG. 6) and caffeoyl-CoA (FIG. 7) as well as feruloyl-CoA (FIG. 2).

The nature of data set [2]: Solubility of the enzyme product in the aqueous assay mixture. To be noted: FMT reaction product; methanol to 50% needed to solubilize. The data set is classed as physicochemical. The protocol:
as §1, with “compound. […]” for “compound.”

In the case of `CC(C)(COP(=O)(O)OP(=O)(O)OC[C@H]1O[C@@H](n2cnc3c(N)ncnc32)[C@H](O)[C@@H]1OP(=O)(O)O)[C@@H](O)C(=O)NCCC(=O)NCCSC(=O)/C=C/c1ccc(O)cc1` [p-coumaroyl-CoA], the “product formed from CoA thioester as acyl donor” value in data set [1] is “very little product”.
Same read-out and setting: next, `CC(C)(COP(=O)(O)OP(=O)(O)OC[C@H]1O[C@@H](n2cnc3c(N)ncnc32)[C@H](O)[C@@H]1OP(=O)(O)O)[C@@H](O)C(=O)NCCC(=O)NCCSC(=O)/C=C/c1ccc(O)c(O)c1` [caffeoyl-CoA]: “very little product”.
As to `COc1cc(/C=C/COC(=O)/C=C/c2ccc(O)c(OC)c2)ccc1O` [coniferyl ferulate], the solubility in water entry in data set [2] is given as “mostly insoluble in water”.
In the case of `COc1cc(/C=C/CO)cc(OC)c1O` [sinapyl alcohol], in data set [1], the “FMT activity with monolignol as acyl acceptor” value is given as “active”.
On to `COc1cc(/C=C/C(=O)SCCNC(=O)CCNC(=O)[C@H](O)C(C)(C)COP(=O)(O)OP(=O)(O)OC[C@H]2O[C@@H](n3cnc4c(N)ncnc43)[C@H](O)[C@@H]2OP(=O)(O)O)ccc1O` [feruloyl-CoA], for which, in data set [1], the “product formed from CoA thioester as acyl donor” value is given as “substantial product”.
`COc1cc(/C=C/CO)ccc1O` [coniferyl alcohol]: the “FMT activity with monolignol as acyl acceptor” value in data set [1] was “active”.
Same read-out and setting: next, `OC/C=C/c1ccc(O)cc1` [p-coumaryl alcohol]: “active”.

The record behind these values is patent publication US9487794B2, “Feruloyl-CoA:monolignol transferase” (Board of Trustees of Michigan State University, priority 2010, dated 2016).
